For one assay, the target named is GST-Flk1 (UniProt P35918). Briefly: GST-FLK-1 bioassay (bio flkGST). In kind it is biochemical. The gist of the method:
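ELISA with Sf9-expressed GST-Flk1cd (5 ng/well) phosphorylating plate-coated poly(Glu,Tyr) 4:1 in Hepes pH 7.5 with MnCl2 and ATP (2 μM as 4× stock), 15 min at room temperature; EDTA stop. Phosphotyrosine detected with PY99-HRP and ABTS at 410 nm.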

Another assay has as its target T1, EGF Receptor (Homo sapiens, UniProt P00533).
T1 construct: expressed in transfected cells; host or cells: NIH 3T3/C7 (mouse fibroblasts engineered to express human EGF-R)
Kind of assay: bio EGF (EGF Receptor ELISA). In kind it is biochemical. Summed up:
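Cells engineered to express human EGFR, seeded in 0.5% serum for ~40 h, then exposed to drug (stock diluted to 1:200 final, 1% DMSO) before 5 min EGF stimulation at 25 nM final. Lysates captured on anti-EGFR-coated plates, and phosphotyrosine detected by anti-pTyr/HRP ELISA at 410 nm. Percent inhibition calculated relative to control wells after negative-control subtraction.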

T1 sequence (P00533 25-1210): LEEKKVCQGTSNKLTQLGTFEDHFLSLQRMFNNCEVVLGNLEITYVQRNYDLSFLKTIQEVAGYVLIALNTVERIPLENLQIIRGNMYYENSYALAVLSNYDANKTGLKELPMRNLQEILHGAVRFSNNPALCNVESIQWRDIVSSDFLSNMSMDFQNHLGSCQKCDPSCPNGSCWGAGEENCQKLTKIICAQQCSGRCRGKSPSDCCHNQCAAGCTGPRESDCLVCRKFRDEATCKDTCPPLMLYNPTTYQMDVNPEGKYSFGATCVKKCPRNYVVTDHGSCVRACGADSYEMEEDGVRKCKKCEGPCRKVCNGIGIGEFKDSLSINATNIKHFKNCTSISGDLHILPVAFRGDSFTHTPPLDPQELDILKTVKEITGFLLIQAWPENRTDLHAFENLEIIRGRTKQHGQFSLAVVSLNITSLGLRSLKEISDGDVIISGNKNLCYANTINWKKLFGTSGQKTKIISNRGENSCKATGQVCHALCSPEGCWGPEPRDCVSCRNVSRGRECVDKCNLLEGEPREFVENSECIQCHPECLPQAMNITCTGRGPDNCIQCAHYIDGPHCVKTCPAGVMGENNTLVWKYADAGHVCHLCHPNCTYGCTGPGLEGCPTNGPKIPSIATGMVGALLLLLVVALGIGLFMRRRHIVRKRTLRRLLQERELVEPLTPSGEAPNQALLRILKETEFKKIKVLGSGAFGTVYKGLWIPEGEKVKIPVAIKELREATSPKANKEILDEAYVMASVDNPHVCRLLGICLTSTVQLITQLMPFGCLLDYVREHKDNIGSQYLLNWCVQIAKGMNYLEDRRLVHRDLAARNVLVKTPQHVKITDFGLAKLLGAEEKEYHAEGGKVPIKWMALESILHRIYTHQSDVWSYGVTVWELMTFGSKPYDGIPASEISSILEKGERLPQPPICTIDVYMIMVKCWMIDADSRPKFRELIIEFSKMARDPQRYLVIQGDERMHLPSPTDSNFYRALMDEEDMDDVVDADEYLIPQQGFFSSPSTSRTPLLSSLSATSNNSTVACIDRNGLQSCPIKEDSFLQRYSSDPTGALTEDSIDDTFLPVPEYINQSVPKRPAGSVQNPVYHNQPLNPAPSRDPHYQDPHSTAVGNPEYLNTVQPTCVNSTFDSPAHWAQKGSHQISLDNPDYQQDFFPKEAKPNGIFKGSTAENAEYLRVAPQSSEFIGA

As to `CN(c1cccc(Cl)c1)S(=O)(=O)c1ccc2c(c1)C(=Cc1cc3cc(OCCN4CCOCC4)ccc3[nH]1)C(=O)N2` [IN-060, 3-[5-(2-morpholin-4-yl-ethoxy)-1H-indol-2-ylmethylene]-2-oxo-2,3-dihydro-1H-indole-5-sulfonic acid (3-chloro-phenyl)-methyl-amide], the IC50 against GST-Flk1 was 8.55 µM; at EGF Receptor, above 20 µM.

Take `COc1cccc(-c2ccc3c(c2)NC(=O)C3=Cc2cc3cc(OCCN4CCCC4)ccc3[nH]2)c1` [IN-027, 6-(3-methoxy-phenyl)-3-[5-(2-pyrrolidin-1-yl-ethoxy)-1H-indol-2-ylmethylene]-1,3-dihydro-indol-2-one]: the IC50 against GST-Flk1 is 2.01 µM; against EGF Receptor, above 20 µM.

Consider `NS(=O)(=O)c1ccc2c(c1)C(=Cc1ccc3[nH]ccc3c1)C(=O)N2` [IN-067, 3-(1H-indol-5-ylmethylene)-2-oxo-2,3-dihydro-1H-indole-5-sulfonic acid amide], for which the IC50 at GST-Flk1 is 3.99 µM; against EGF Receptor, above 100 µM.

In the case of `O=C1Nc2cc(-c3ccccc3)ccc2C1=Cc1cc2cc(OCCN3CCCC3)ccc2[nH]1` [IN-015, 6-phenyl-3-[5-(2-pyrrolidin-1-yl-ethoxy)-1H-indol-2-ylmethylene]-1,3-dihydro-indol-2-one], the results for the IC50 against GST-Flk1 and at EGF Receptor were 0.99 µM and 70.6 µM, respectively.

As to `O=C1Nc2cccc(CCO)c2C1=Cc1cc2cc(OCCN3CCOCC3)ccc2[nH]1` [IN-033, 4-(2-hydroxy-ethyl)-3-[5-(2-morpholin-4-yl-ethoxy)-1H-indol-2-ylmethylene]-1,3-dihydro-indol-2-one], the IC50 against GST-Flk1 is below 0.009 µM; against EGF Receptor, 8.2 µM.

Regarding `O=C1Nc2ccc(C(=O)O)cc2C1=Cc1cc2cc(OCCN3CCOCC3)ccc2[nH]1` [IN-030, 3-[5-(2-morpholin-4-yl-ethoxy)-1H-indol-2-ylmethylene]-2-oxo-2,3-dihydro-1H-indole-5-carboxylic acid], the IC50 is below 0.009 µM on GST-Flk1 and above 20 µM at EGF Receptor.
